Results as given in US20160115540A1, “PRODRUGS AND DRUGS” (Biogen MA Inc., priority 2013, published 2016).
Counter-ions that a name gives are not always drawn.

Tested on: kidney
Test: Transcriptional profiling on Affymetrix GeneChips, single dose, naïve mice: kidney
Type: in vivo, C57BL/6 mice
Settings: 100MMF-vs-Veh
Description: Treated mice were sacrificed at 2, 7, or 12 hours. Tissues (liver, spleen, kidney, jejunum, cortex, hippocampus, striatum and whole blood) were collected and analyzed by transcriptional profiling on mouse Affymetrix GeneChips.
Tissues (liver, spleen, kidney, jejunum, cortex, hippocampus, striatum and whole blood) were collected and analyzed by transcriptional profiling on mouse Affymetrix GeneChips.
Animals were exposed to CO2 and whole blood collected via cardiac puncture. Two 100 μl aliquots of whole blood were collected in 1.5 mL microcentrifuge tubes and snap frozen in liquid nitrogen. Peripheral (liver, spleen, kidney and jejunum) and CNS brain (cerebellum, hippocampus, striatum and cortex) tissues were harvested and snap frozen in liquid nitrogen, with special care taken to collect tissues of similar size and from the same location. All samples were stored at −80° C. until RNA extraction was conducted.
For RNA preparation, frozen tissues were placed in 2 mL RNAse-free 96-well blocks with 1.5 mL QIAzol Lysis Reagent (QIAgen) and a 3.2 mm stainless steel bead (BioSpec Products, Bartlesville, Okla.). Tissues were disrupted for four cycles of 45 seconds in a Mini-Beadbeater (Biospec Products). RNA was extracted in chloroform and the aqueous phase was mixed with an equal volume of 70% ethanol. Extracted RNA was applied to RNeasy 96 plates and purified by the spin method according to the manufacturer's protocol (RNeasy 96 Universal Tissue Protocol, QIAgen, Hilden Germany).
Automated sample amplifications and biotin labelings were carried out using the NuGEN Ovation RNA Amplification system V2 (Cat #3100), Ovation WB reagent (Cat #1300) and Encore Biotin module (Cat #4200) (NuGEN Technologies, Inc, San Carlos, Calif.) according to manufacturer's recommendations using an Arrayplex automated liquid handler (Beckman Coulter, Indianapolis, Ind.). Two micrograms of biotin labeled sscDNA probe were hybridized to Affymetrix GeneChip Affymetrix HT_MG-430_PM plate arrays with modified conditions as described in Allaire et al. Washing and staining of the hybridized arrays were completed as described in the GeneChip Expression analysis technical manual for HT plate arrays using the Genechip® Array Station (Affymetrix, Santa Clara, Calif.) with modifications as described in Allaire et al. The processed GeneChip® plate arrays were scanned using GeneTitan scanner (Affymetrix, Santa Clara, Calif.).
Affymetrix scans were subject to quality control (QC) measures. These tests included a visual inspection of the distribution of raw signal intensities and an assessment of RNA degradation, relative log expression (RLE), and normalized unsealed standard error (NUSE). All sample scans that passed these QC metrics were included in the analysis.
All CEL files were subjected to GC-content-based Robust Multi-array Average (GCRMA) normalization (version 2.20.0) (Irizarry R A, et al. Nucleic Acids Res 2003; 31:e15; Li C, et al. Genome Biol 2001; 2:[…]0032). Expression levels were log (base 2) transformed.
All calculations and analyses were carried out using R (version 2.11.1) and Bioconductor computational tools (Gentleman R. Springer Science+Business Media 2005).

## COC(=O)/C=C/C(=O)O [MMF, monomethyl fumarate]
7 h
  FC Gsr (1421816_PM_at): 1.83
  FC Gsta3 (1423436_PM_at): 1.99
  FC Gsta3 (1423437_PM_at): 2.95
  FC Gsta4 1416368_PM_at: 1.85
  FC Havcr1 1434716_PM_at: 3.22
  FC Hfe 1450702_PM_at: 1.57
  FC Hist1h2be 1440330_PM_at: 1.98
  FC Hist2h3c1 1442051_PM_at: 1.65
  FC Hmox1 1448239_PM_at: 7.48
  FC Hsp90aa1 1426645_PM_at: 1.50
  FC Ido2 1425778_PM_at: −1.52
  FC Ikbkg 1421209_PM_s_at: 1.77
  FC Ikbkg 1435646_PM_at: 1.80
  FC Ikbkg 1454690_PM_at: 1.61
  FC Il18 1417932_PM_at: −1.52
  FC Kif20b 1439695_PM_a_at: −2.61
  FC Lcp1 1415983_PM_at: 1.59
  FC Lcp1 1448160_PM_at: 1.56
  FC Lpar2 1442291_PM_at: 1.84
  FC Lrp8 (1440882_PM_at): 2.19
  FC Mctp2 1457707_PM_at: 1.54
  FC Mfsd2a 1428223_PM_at: −3.38
  FC Mt1 1422557_PM_s_at: 1.89
  FC Mt2 1428942_PM_at: 2.71
  FC Mthfd2 1419253_PM_at: 1.89
  FC Mthfd2 1419254_PM_at: 1.68
  FC Napsa 1430744_PM_at: −1.79
  FC Ndrg1 1423413_PM_at: 1.52
  FC Ndrg1 1450977_PM_s_at: 1.54
  FC Nmral1 1430530_PM_s_at: −1.52
  FC Nqo1 (1423627_PM_at): 1.96
  FC Nrg1 1456524_PM_at: 1.81
  FC Nudt11 1426887_PM_at: 1.62
  FC Pank1 1457110_PM_at: −1.79
  FC Pank2 1452733_PM_at: −1.94
  FC Pard3 1434775_PM_at: 1.53
  FC Pfkfb4 1456888_PM_at: 1.69
  FC Pgd 1423706_PM_a_at: 2.21
  FC Pgd 1438627_PM_x_at: 1.78
  FC Pgd (1436771_PM_x_at): 1.87
  FC Pgd (1437380_PM_x_at): 1.87
  FC Pir (1429001_PM_at): 2.63
  FC Ppm1e 1434990_PM_at: −1.53
  FC Rab38 1417700_PM_at: −1.57
  FC Rassf6 1429262_PM_at: 1.65
  FC Rdh10 1460632_PM_at: 1.68
  FC Rhof 1455902_PM_x_at: 1.66
  FC Rnf24 1436101_PM_at: −2.03
  FC Rock2 1451041_PM_at: 1.60
  FC Rundc3b 1434456_PM_at: 1.54
  FC Sema3c 1420696_PM_at: 1.66
  FC Slc7a1 1454992_PM_at: 1.62
  FC Slc9a8 1454865_PM_at: −1.68
  FC Slc16a6 1417884_PM_at: 1.55
  FC Slc20a1 1448568_PM_a_at: 1.70
  FC Slc40a1 1448566_PM_at: 1.51
  FC Slc48a1 1450410_PM_a_at: 1.58
  FC Smcp 1418358_PM_at: −1.96
  FC Sphk2 1426230_PM_at: −1.54
  FC Sqstm1 1450957_PM_a_at: 1.62
  FC Srxn1 (1419942_PM_at): 2.45
  FC Srxn1 (1425351_PM_at): 2.92
  FC Srxn1 (1426875_PM_s_at): 2.29
  FC Srxn1 (1451680_PM_at): 2.68
  FC Syn3 1435311_PM_s_at: −1.68
  FC Tardbp 1423723_PM_s_at: 1.62
  FC Tcte2 1425009_PM_at: −1.61
  FC Tiam2 1423186_PM_at: 2.27
  FC Tmem86a 1428758_PM_at: −1.56
  FC Tnfrsf12a 1418571_PM_at: 2.40
  FC Tnfrsf12a 1418572_PM_x_at: 2.45
  FC Trim7 1425743_PM_at: −1.59
  FC Trim7 1439352_PM_at: −1.55
  FC Tubb2a 1427347_PM_s_at: 1.52
  FC Txnrd1 1421529_PM_a_at: 1.72
  FC Txnrd1 (1424486_PM_a_at): 3.08
  FC Txnrd1 (1424487_PM_x_at): 2.37
  FC Upp2 1424969_PM_s_at: −3.63
  FC Upp2 1451548_PM_at: −4.00
  FC Uxs1 1426275_PM_a_at: 1.50
  FC Vwa1 1426399_PM_at: −1.69
  FC Wdr90 1426767_PM_at: −1.58
  FC Wnt5a 1436791_PM_at: 1.69
  FC Wnt5a 1448818_PM_at: 1.81
12 h
  FC Acot1 /// Acot2 1422997_PM_s_at: 1.51
  FC Aldh1a1 1416468_PM_at: 2.21
  FC Aldh1a7 (1418601_PM_at): 3.02
  FC Aox1 (1419435_PM_at): 2.23
  FC Arg2 1418847_PM_at: 2.70
  FC Atp11a 1421167_PM_at: −1.62
  FC C1qtnf3 1422606_PM_at: −1.57
  FC Cyp51 1422533_PM_at: −1.95
  FC Cyp51 1422534_PM_at: −1.79
  FC Egln3 1418649_PM_at: 1.71
  FC G6pd2 /// G6pdx 1422327_PM_s_at: 1.91
  FC Gbe1 1420654_PM_a_at: 1.51
  FC Gdf15 1418949_PM_at: 2.01
  FC Gm3776 /// Gsta1 /// Gsta2 1421041_PM_s_at: 1.68
  FC Gpr19 1421756_PM_a_at: 1.50
  FC Gsta2 (1421040_PM_a_at): 1.61
  FC Gsta3 (1423436_PM_at): 1.95
  FC Gsta3 (1423437_PM_at): 2.85
  FC Gsta4 1416368_PM_at: 1.95
